Here are results for one compound from PMC11096781, “Population pharmacokinetics of intravenous daptomycin in critically ill patients: implications for selection of dosage regimens” (Frontiers in Pharmacology, 2024).

The clearance is a measure of how efficiently the substance is removed, as volume per time.

Data set [1] is described as follows: Monitoring of creatinine phosphokinase (CPK) and adverse reactions during treatment. It counts as in vivo, human. The settings on record: 64 critically ill patients, 500 mg q24h i.v., during the treatment period. As for the experimental part:
Demographic and clinical characteristics of the enrolled patients were also collected from the medical records, including age, sex, weight, diagnosis, comorbidities, outcome, combination of other drugs (including antimicrobials), daily complete blood counts, biochemical test results (including liver and renal function and creatinine phosphokinase (CPK)), and whether CRRT or ECMO therapy was performed. In addition, acute physiology and chronic health evaluation (APACHE) and sequential organ failure assessment (SOFA) scores were calculated for each patient to determine disease severity. The patient’s creatinine clearance (CLCR) was calculated according to the Cockcroft-Gault formula based on serum creatinine at steady state on day 3.
The daptomycin dose was 500 mg every 24 h.

On data set [2], the source says:
Plasma samples were collected from patients who received an intravenous infusion of daptomycin in the intensive care unit (ICU) of Zhongnan Hospital of Wuhan University from April 2021 to December 2022 according to the inclusion and exclusion criteria and the clinical sample sampling protocol for blood drug concentration testing. Patients who fulfilled the following criteria were eligible: ≥18 years old; treated with daptomycin for proven/probable infections caused by Gram-positive organisms that were unresponsive or intolerant to other antimicrobial agents. The exclusion criteria were pregnancy, known or suspected hypersensitivity to daptomycin and its excipients, and incomplete or missing laboratory data before and after treatment.
Daptomycin (Jiangsu Hengrui Medicine Co., Ltd.) dissolved in 100 mL normal saline was administered as a 30-min infusion. The daptomycin dose was 500 mg every 24 h. To obtain a complete blood drug concentration time curve after administration, we took into account the equilibrium phase (near peak concentration) and elimination phase of the drug in the design of sampling time points. On the first day of administration, blood samples were collected at 0, 0.5, 1, 2, 4, 8, 12, and 24 h after infusion. On the third day of administration, blood samples were collected before administration and at 0, 0.5, 1, 2, 4, 8, 12, and 24 h after infusion. On the fifth and seventh days, blood samples were collected before administration and at 0.5 and 4 h after infusion. Blood was drawn and allowed to clot in yellow blood-collecting tubes containing separating glue and a coagulant accelerator. Serum was collected by centrifugation and stored at −80°C until assayed. As soon as the study dose was administered, the participants were monitored for potential side effects. Serious adverse events were defined as adverse events related to daptomycin that required treatment discontinuation.
Serum daptomycin concentrations were measured using a high-performance liquid chromatography-tandem mass spectrometry method developed in our laboratory, the lower limit of quantification was 0.05 μg mL^−1. Briefly, serum samples were analyzed after protein precipitation. Daptomycin-d5 (Beijing Hager Biotechnology Co., Ltd.) was used as an internal standard. A Waters ACQUITY UPLC C8 column (2.1 mm × 50 mm, 1.7 μm) was used for separation. The mobile phase consisted of phase A: water (0.1% formic acid), phase B: 1:1 methanol: acetonitrile (0.1% formic acid) at a flow rate of 0.4 mL min^−1, column temperature of 45°C, injection volume of 2 μL, and analysis time of 4 min. Ion transitions were performed using positive electrospray ionization in the multiple reaction monitoring mode.
Before measurement, the sample was restored to room temperature, 100 μL of 1:1 methanol: acetonitrile was measured into a […] EP tube, then 10 μL of daptomycin-d5 with 40 μL of sample/standard/quality control was added, the sample was vortex shaken for 1 min, centrifuged at high speed for 8 min (14,500 r/min), and the supernatant was placed in a 96-well plate for the assay.
NONMEM (version 8.1; ICON Development Solutions, Hanover, MD, United States) was used to establish a population PK model for daptomycin and to perform Monte Carlo simulations ([Bauer et al., 2007]). The ADAPT-TRAN program was used for pre- and post-processing ([Savic et al., 2009]). This study explored one- and two-compartment models of population PK of daptomycin. The two-compartment, disposition model was parameterised in terms of total clearance (CL), volume of distribution in the central compartment (VC), volume of distribution in the peripheral compartment (VP), and intercompartmental clearance (Q). The first order conditional estimation with inter- and intra-subject variability interaction (FOCE-I) was employed for all model runs. The inter-individual variability (η) was described using lognormal distributions, and a mixed additive and proportional model was chosen for residual variability (Ɛ). […]

The conditions of data set [3]: cited from earlier work.
Setting [4] is: bootstrap analysis with 1000 samples.

“Also recorded” adds a separate entry of the source.

For `CCCCCCCCCC(=O)N[C@@H](Cc1c[nH]c2ccccc12)C(=O)N[C@H](CC(N)=O)C(=O)N[C@@H](CC(=O)O)C(=O)N[C@@H]1C(=O)NCC(=O)N[C@@H](CCCN)C(=O)N[C@@H](CC(=O)O)C(=O)N[C@H](C)C(=O)N[C@@H](CC(=O)O)C(=O)NCC(=O)N[C@H](CO)C(=O)N[C@@H]([C@H](C)CC(=O)O)C(=O)N[C@@H](CC(=O)c2ccccc2N)C(=O)O[C@@H]1C` [daptomycin, Daptomycin], the “CPK elevation or other adverse reactions related to daptomycin” value in data set [1] is listed as “No increase in CPK or other adverse reactions; also recorded: no elevation of CPK associated with daptomycin was found”. Besides, in data set [2] (setting [4]), the “Q, bootstrap median” value is 2.086 L/h; the “VC, bootstrap median” value was 4.14 L; the “VP, bootstrap median” value stood at 3.527 L. Further, in data set [2] (human, in vivo), the “CL, renal part: coefficient of CCR/54 in the final covariate model” value amounted to 0.148 L/h; the “CRRT clearance, bootstrap median” value was determined as 0.386 L/h; the “NR (no renal clearance), bootstrap median” value came to 0.231 L/h; the Q is listed as 2.13 ± 0.17 L/h. In addition, in data set [2] (human, in vivo), the “R (renal clearance), bootstrap median” value came to 0.15; the “R (renal clearance), final model estimate” value was 0.152; the V1 is recorded as 4.20 ± 0.19 L; the V2 is on record as 3.67 ± 0.25 L. Further, in data set [2] (human, in vivo), the “non-renal clearance rate (CLNR) of non-CRRT patients” value stood at 0.23 ± 0.05 L/h and the “renal clearance part (CLR), coefficient × (CCR/54)” value is 0.14 ± 0.035. Moreover, in data set [2] (human, in vivo, iv), the “NR (no renal clearance), final model estimate” value is 0.229 L/h; the “Q (intercompartmental clearance), final model estimate” value is given as 2.09 L/h; the “VC (volume of distribution in the central compartment), final model estimate” value was 4.14 L; the “VP (volume of distribution in the peripheral compartment), final model estimate” value is 3.52 L. In addition, the clearance in data set [2] (human, in vivo, iv) is 6.43 mL/min. Moreover, in data set [2] (sex as covariate in forward inclusion, not retained in the final model), the “VP of males relative to females” value is reported as “approximately 1.4 times”. Also, in data set [3] (ref Dvorchik et al., 2004), the “metabolism by liver enzymes” value was “not metabolized by liver enzymes”. Also, the “eliminated by the kidneys” value in data set [3] (ref Enoch et al., 2007) is 78%. Also, the half-life entry in data set [3] (ref Hawkey, 2008) is “approximately 8 h”.
